Test results published in patent US11987566B2, “Nerve damage preventing and nerve protecting compounds, preparation method thereof, pharmaceutical composition thereof, and their use” (GENHEALTH PHARMA CO., LTD., priority 2022, dated 2024).

Experiments:
[1] = tested on: transient focal Middle Cerebral Artery Occlusion/Reperfusion model (MCAO/R model); assay: Evaluation of the effect of preventing nerve damage: total infarct volume (TTC staining) in MCAO/R model; assay type: in vivo, male Sprague Dawley rat; details: SD rat, 50 mg/kg intraperitoneal once 10 minutes before MCAO/R; 1 hour ischemia, 24 hours blood reperfusion; vehicle group 40.48
Protocol: Besides the foresaid experimental groups, only pure solvent used was treated as vehicle group, and a sham group, which was not administrated with any compound or solvent or with nylon monofilament to cause obstruction and ischemia, was also included. In this test example, transient focal Middle Cerebral Artery Occlusion/Reperfusion model (MCAO/R model) was adopted to simulate ischemic stroke for evaluating the subsequent nerve damage. Specifically, male Sprague Dawley rat (SD rat) was adopted and anaesthetized with 2% isoflurane, and then the right common carotid artery, external carotid artery and internal carotid artery were distinguished among them from the neck. Next, a nylon monofilament with length of 22 millimeters (mm), size number of 4/0 and capped with polysiloxane was inserted into the external carotid artery and along with the […] to the circle of Willis to induce obstruction and ischemia in the middle cerebral artery. After causing obstruction and ischemia for 1 hour, the nylon monofilament was removed to allow the blood recirculated to the brain, in other words, to undergo blood reperfusion. After blood reperfusion for 24 hours, the rat was sacrificed and the brain thereof was placed into a cooled 0.95% saline. […] Afterward, the sliced brain tissues were stained with a 4% […] solution, and then MacroPATH Digital Imaging System was used to record the images and the obtained images were analyzed by ImageJ 1.52a to count the infarct volume percent, which could represent the degree of nerve damage. The foresaid infarct volume percent was obtained by adding the values acquired by multiplying the proportion of infarct area of each sliced brain tissue with their thickness, and the proportion of infarct area was calculated by the equation: (B−A)/B×100%; wherein, “A” represented the undamaged area in the damaged cerebral hemisphere on the right side, and “B” represented the total area of the undamaged cerebral hemisphere on the left side. […]

[2] = tested on: transient focal Middle Cerebral Artery Occlusion/Reperfusion model (MCAO/R model); assay: Neurobehavioral evaluation (Bederson classification) after MCAO/R; details: Bederson Grade 0-4, SD rat, 50 mg/kg intraperitoneal, vehicle group 2.80

Row | Compound | Total infarct volume percent (%) [1] | Grade (neurobehavioral evaluation), time point of 0.5-hour after blood reperfusion [2] | Grade (neurobehavioral evaluation), time point of 1.5-hour after blood reperfusion [2] | Grade (neurobehavioral evaluation), time point of 24-hour after blood reperfusion ([2]; 24 hour after blood reperfusion)
1 | COc1cc(COC(C)=O)c(OC)c2c1OCO2 [Example 3] | 17.13% | 2.80 | 2.60 | –
2 | COc1cc(CC=C(C)C)c(OC)c2c1OCO2 [Example 4] | 16.4% | 2.60 | 2.60 | –
3 | COc1c(C)c(CC=C(C)C)c(OC)c2c1OCO2 [Example 1] | 28.82% | 2.60 | 2.80 | 2.60
